“Also recorded” adds a separate entry of the source. Marks after values point to notes of the source that are not given here.
Tested on: male C57BL/6 mice
Test: spontaneous orientation (patroling behavior) test in the closed cross maze
Assay type: in vivo
Conditions: for F_PasN, M / F_PtrN, duration of the first patroling cycle (number of arm visits), M / L_TrnN, number of left turns, M / PatrlN, number of patrolling cycles, M / R_TrnN, number of right turns, M / S_PtrN, duration of the second patrolling cycle (number of arm visits), M / S_VisN, spontaneous stereotype behavior, M / rl_Ind, asymmetry index of turns, M / F_ChTm, latency of the first arm visit, M / F_GlTm, length of the first arm visit, M / T_ChTm, total time spent in the central compartment of the maze, M / T_GlTm, total time spent in the side arms of the maze, M: 1 hour after treatment; for nootropic effect (decrease in F_PtrN and S_PtrN, increase in PatrlN): single administration into stomach
Method: Preclinical evaluation of nootropic and sedative activity of the compounds was performed in mice using spontaneous orientation (patroling behavior) test in the cross maze, that allows simultaneous evaluation of nootropic, tranquilizing, sedative and psychostimulating effects of the compounds.
For evaluation of the exploratory behavior of the animals the closed cross maze test was used (Salimov R. M., Evaluation of the ordering of the way in the process of exploratory behavior in mice. Journal of the Higher Nervous Activity, 1988, v. 38, #3, pp. 569-571).
The mouse was placed in the central compartment of the maze and the sequence of its visits in different compartments was recorded semi-automatically.
Test was completed after 12 visits (Salimov R. M., Evaluation of the ordering of the way in the process of exploratory behavior in mice. Journal of the Higher Nervous Activity, 1988, v.38, #3, pp. 569-571; Salimov R. M., McBride W. J., Sinclair J. D., Lumeng L., Li T. -K. Performance in the cross-maze and slip funnel tests of four pairs of rat lines selectively bred for divergent alcohol drinking behavior. Addict. Biol. 1996a, 1:273-280; Salimov, R. M., McBride, W. J., McKenzie, D. L., Lumeng, L. and Li, T. -K. Ethanol consumption by adolescent alcohol-preferring P rats on subsequent behavioural performance in the cross-maze and slip funnel tests. Alcohol. 1996b, 13: c. 297-300).
Subsequent computerized analysis of the record singled out a number of behavioral characteristics. The most informative among them were:
1) The total time spent by the animal in the central compartment of the maze—T_ChTm, and the total time spent by the animal in the side arms of the maze—T_GlTm.
These variables reflect the level of the motor activity of the animal and also reflect the intensity of their exploratory drive for the new environment. […] Alcohol 20:61-68; 2000; Markina N. V., Salimov R. M., Poletaeva I. I. Exploratory behaviour of F2 crosses of mouse lines having selected for different brain weight: A multivariate analysis. Prog. Neuro-Psychopharmacol. Biol. Psychiat. 2004, 28(3):583-589).
2) The latency (variable F_ChTm) and the length of the first arm visit (F_GlTm).
These variables reflect the level of anxiety of the animal in the new environment and can be used for the evaluation of the tranquilizing (anxiolythic) effect of the drug (Salimov, R. M. Different behavioral patterns related to alcohol use in rodents: A factor analysis. Alcohol. 1999, 17:157-162).
3) The duration of the first patroling cycle—variable F_PtrN, and the duration of the second patrolling cycle—variable S_PtrN.
These variables are measured by the number of the animal's visits in the maze arms, performed by the animal for the exploration of the environment before it visits all 4 arms at least once (Salimov R. M., Evaluation of the ordering of the way in the process of exploratory behavior in mice. Journal of the Higher Nervous Activity, 1988, v.38, #3, pp. 569-571; Salimov R. M., McBride W. J., Sinclair J. D., Lumeng L., Li T. -K. Performance in the cross-maze and slip funnel tests of four pairs of rat lines selectively bred for divergent alcohol drinking behavior.
4) The number of patrolling cycles—variable PatriN, executed during the time of the experiment, as one of the characteristics of the efficiency of exploratory behavior. The more patroling cycles were accomplished, the more “systematic” and efficient was the exploration of the maze.
Variables from groups 3 and 4 can be used for the evaluation of the nootropic activity of the drugs.
5) The number of right turns—variable R_TrnN, and the number of left turns—variable L_TrN, executed by the animals moving from one arm of the maze to the other, as well as asymmetry index—variable rl_Ind—of these turns:
rl_Ind ═R_TrnN*(R_TrnN+L_TrnN)^−1
6) The spontaneous stereotype behavior—variable S_VisN, that characterizes animal's visiting two arms of the maze in turn more than two times in a row. […]

[1] = 100 mg/kg, single dose into stomach, N = 15
[2] = 100 mg/kg, single dose into stomach, N = 15, in s (unit assumed)
[3] = 2.5 mg/kg, single dose into stomach, N = 12
[4] = 2.5 mg/kg, single dose into stomach, N = 12, in s (unit assumed)
[5] = 5.0 mg/kg, single dose into stomach, N = 12
[6] = 5.0 mg/kg, single dose into stomach, N = 12, in s (unit assumed)
[7] = single administration, 2.5 and 5.0 mg/kg doses
[8] = 1 mg/kg, single dose, N = 15, in s (unit assumed)
[9] = single administration 0.5 mg/kg
[10] = 300 mg/kg, single dose into stomach, N = 15
[11] = 300 mg/kg, single dose into stomach, N = 15, in s (unit assumed)

## CN(C)CCOC(=O)COc1ccc(Cl)cc1 [Meclofenaxate, reference compound]
[1]
  F_PasN, M: 3.6
  F_PtrN, duration of the first patroling cycle (number of arm visits), M: 4.8*
  L_TrnN, number of left turns, M: 4.5
  PatrlN, number of patrolling cycles, M: 2.5*
  R_TrnN, number of right turns, M: 3.8
  S_PtrN, duration of the second patrolling cycle (number of arm visits), M: 4.6*
  S_VisN, spontaneous stereotype behavior, M: 3.7
  rl_Ind, asymmetry index of turns, M: 0.4
[2]
  F_ChTm, latency of the first arm visit, M: 15.4
  F_GlTm, length of the first arm visit, M: 29.1
  T_ChTm, total time spent in the central compartment of the maze, M: 40.5
  T_GlTm, total time spent in the side arms of the maze, M: 145.4
100 mg/kg
  nootropic effect (decrease in F_PtrN and S_PtrN, increase in PatrlN): nootropic effect

## Cc1ccc2c(c1)[C@@H]1CN(C)CC[C@H]1N2 [Trans-(−)-isomer, (−)-trans-2,3,4,4a,5,9b-hexahydro-2,8-dimethyl-1H-pyrido[4,3-b]indole]
[3]
  F_PtrN, duration of the first patroling cycle (number of arm visits), M: 6.10
  L_TrnN, number of left turns, M: 3.00
  PatrlN, number of patrolling cycles, M: 1.67
  R_TrnN, number of right turns, M: 3.08
  S_PtrN, duration of the second patrolling cycle (number of arm visits), M: 4.43*^+
  S_VisN, spontaneous stereotype behavior, M: 6.33
  T_GlTm, total time spent in the side arms of the maze, M: 166.78*^+
  rl_Ind, asymmetry index of turns, M: 0.50
[4]
  F_ChTm, latency of the first arm visit, M: 10.75
  F_GlTm, length of the first arm visit, M: 20.27
  T_ChTm, total time spent in the central compartment of the maze, M: 33.10
[5]
  F_PtrN, duration of the first patroling cycle (number of arm visits), M: 5.42
  L_TrnN, number of left turns, M: 3.83
  PatrlN, number of patrolling cycles, M: 2.08
  R_TrnN, number of right turns, M: 5.08*
  S_PtrN, duration of the second patrolling cycle (number of arm visits), M: 5.00^+
  S_VisN, spontaneous stereotype behavior, M: 4.17*
  T_GlTm, total time spent in the side arms of the maze, M: 238.16*^+
  rl_Ind, asymmetry index of turns, M: 0.58
[6]
  F_ChTm, latency of the first arm visit, M: 8.33
  F_GlTm, length of the first arm visit, M: 33.62*
  T_ChTm, total time spent in the central compartment of the maze, M: 42.23*
[7]
  nootropic effect (improvement in the patrolling behavior, decrease in S_PtrN): nootropic effect
  sedative effect (reduction in the speed of movement in the maze; increase in T_ChTm and T_GlTm): sedative effect
Single administration, 2.5 and 5.0 mg/kg doses, listed as (−)-trans-2,8-dimethyl-2,3,4,4a,5,9b-hexahydro-1H-pyrido[4,3-b]indole
  spontaneous stereotype behavior (variable S_VisN), change: significantly decreased; also recorded: decrease

## O=C(CCCN1CCC(O)(c2ccc(Cl)cc2)CC1)c1ccc(F)cc1 [Haloperidol, reference compound]
1 mg/kg, single dose, N = 15
  F_PtrN, duration of the first patroling cycle (number of arm visits), M: 6.09
  L_TrnN, number of left turns, M: 3.36
  PatrlN, number of patrolling cycles, M: 1.91
  R_TrnN, number of right turns, M: 3.91
  S_PtrN, duration of the second patrolling cycle (number of arm visits), M: 5.20
  S_VisN, spontaneous stereotype behavior, M: 2.35*
  rl_Ind, asymmetry index of turns, M: 0.54
[8]
  F_ChTm, latency of the first arm visit, M: 19.30*
  F_GlTm, length of the first arm visit, M: 31.85*
  T_ChTm, total time spent in the central compartment of the maze, M: 100.65*
  T_GlTm, total time spent in the side arms of the maze, M: 284.67*
[9]
  sedative effect (reduction in the speed of movement in the maze; increase in T_ChTm and T_GlTm): sedative effect
  spontaneous stereotype behavior (variable S_VisN), change: decrease

## NC(=O)CN1CCCC1=O [Piracetam, reference compound]
[10]
  F_PasN, M: 4.1
  F_PtrN, duration of the first patroling cycle (number of arm visits), M: 4.5*
  L_TrnN, number of left turns, M: 4.5*
  PatrlN, number of patrolling cycles, M: 2.1
  R_TrnN, number of right turns, M: 3.4*
  S_PtrN, duration of the second patrolling cycle (number of arm visits), M: 5.4
  S_VisN, spontaneous stereotype behavior, M: 4.3*
  rl_Ind, asymmetry index of turns, M: 0.4*
[11]
  F_ChTm, latency of the first arm visit, M: 11.6
  F_GlTm, length of the first arm visit, M: 25.0
  T_ChTm, total time spent in the central compartment of the maze, M: 46.1
  T_GlTm, total time spent in the side arms of the maze, M: 135.1
300 mg/kg
  nootropic effect (decrease in F_PtrN and S_PtrN, increase in PatrlN): nootropic effect

## Cc1ccc2c(c1)[C@H]1CN(C)CC[C@@H]1N2 [Trans-(+)-isomer, (+)-trans-2,8-dimethyl-2,3,4,4a,5,9b-hexahydro-1H-pyrido[4,3-b]indole]
[3]
  F_PtrN, duration of the first patroling cycle (number of arm visits), M: 5.75
  L_TrnN, number of left turns, M: 4.17
  PatrlN, number of patrolling cycles, M: 2.00
  R_TrnN, number of right turns, M: 2.67
  S_PtrN, duration of the second patrolling cycle (number of arm visits), M: 4.55*^+
  S_VisN, spontaneous stereotype behavior, M: 5.75
  T_GlTm, total time spent in the side arms of the maze, M: 271.98*^+
  rl_Ind, asymmetry index of turns, M: 0.39
[4]
  F_ChTm, latency of the first arm visit, M: 9.18
  F_GlTm, length of the first arm visit, M: 22.91
  T_ChTm, total time spent in the central compartment of the maze, M: 53.27*
[5]
  F_PtrN, duration of the first patroling cycle (number of arm visits), M: 6.30
  L_TrnN, number of left turns, M: 4.82
  PatrlN, number of patrolling cycles, M: 1.64
  R_TrnN, number of right turns, M: 3.09
  S_PtrN, duration of the second patrolling cycle (number of arm visits), M: 5.43^+
  S_VisN, spontaneous stereotype behavior, M: 5.55
  T_GlTm, total time spent in the side arms of the maze, M: 391.25*^+
  rl_Ind, asymmetry index of turns, M: 0.38
[6]
  F_ChTm, latency of the first arm visit, M: 24.60*
  F_GlTm, length of the first arm visit, M: 43.48*
  T_ChTm, total time spent in the central compartment of the maze, M: 58.27*
(+)- versus (−)-trans isomer, 2.5 and 5.0 mg/kg
  sedative effect compared with the other optic isomer: higher sedative effect
[7]
  nootropic effect (improvement in the patrolling behavior, decrease in S_PtrN): nootropic effect
  sedative effect (reduction in the speed of movement in the maze; increase in T_ChTm and T_GlTm): sedative effect
  spontaneous stereotype behavior (variable S_VisN), change: did not demonstrate this ability

From US20080262019A1, “Optical Isomers of (+) and (-)-Trans-2,3,4,4A,5,9B-Hexahydro-2,8-Dimethyl-1H-Pyrido[4,3-B] Indole” (priority 2005, published 2008)
